This is an account of results in patent US20110224205A1 (NATIONAL TAIWAN UNIVERSITY, priority 2010, published 2011).

Like-named read-outs stand apart in the source and are kept apart here.

Series [1] deals with IEC-18 cells. In words: MTT assay, IEC-18 intestinal epithelial cells. The format is cell-based, rat. On the procedure:
(§1) A MTT [3-(4,5-dimethylthiazolyl-2)-2,5-diphenyltetrazolium bromide] (Sigma, St Louis, Mo.) assay was performed to determine cell proliferation. Briefly, CL1-5, A549, PC-9, H1650, H1975 and IEC-18 cells were plated in 96-well plates at a density of 5×10^3 cells/well. […] MTT solution to a final concentration in the culture medium 0.5 mg/ml was then added to the wells. After a further 1.5 h of incubation, the medium was removed and DMSO was added to the plates.

In series [2] the test system is active-p38 in IEC-18 cells. In words: Western blot active-p38, IEC-18. The format is cell-based, rat.
The subject of series [3] is A549 cells. In kind it is cell-based, human. On the procedure:
as §1

The subject of series [4] is CL1-5 cells. In kind it is cell-based, human. On the procedure: as §1
Series [5] concerns H1650 cells. The format is cell-based, human. On the procedure: as §1
Series [6] deals with H1975 cells. In kind it is cell-based, human. On the procedure:
as §1

Series [7] deals with H1299 cells. In kind it is cell-based, human.
The subject of series [8] is EGFR, pEGFR, AKT, pAKT in CL1-5 cells. In words: Western blot EGFR signaling, CL1-5. The format is cell-based, human.
Series [9] relates to EGFR, pEGFR, AKT, pAKT in A549 cells. In words: Western blot EGFR signaling, A549. In kind it is cell-based, human.
In series [10] the test system is pAKT, cyclin D1 in H1975 cells. Kind of series: Western blot EGFR signaling, H1975. In kind it is cell-based, human. As to conditions: H1975, curcumin 1-20 μM, EGF 20 ng/ml.
The subject of series [11] is pEGFR, pAKT in H1299 cells. Kind of series: Western blot EGFR signaling, H1299. In kind it is cell-based, human. The following applies: gefitinib 1 μM alone, curcumin 10 and 15 μM alone, or gefitinib 1 μM + curcumin 15 μM.
Series [12] deals with EGFR mRNA in CL1-5 cells. In words: Real-time quantitative RT-PCR of EGFR. In kind it is cell-based, human. The following applies: CL1-5, 1-20 μM, 24 h.
Series [13] relates to EGFR protein in lung adenocarcinoma cells. Kind of series: EGFR degradation (Western blot) and ubiquitination (immunoprecipitation). The format is cell-based. The following applies: without MG132.
For series [14], the system named is CL1-5 lung adenocarcinoma xenograft. Kind of series: CL1-5 xenograft tumor growth. In kind it is in vivo, SCID mice. As to conditions: control 638.55.
Series [15] has as its system H1975 cells. The following applies: 15 μM curcumin without gefitinib.
Series [16] relates to CL1-5 tumor tissue.
A short description of series [17]: Adverse gastrointestinal effects and survival in xenograft study.
The test system of series [18] is active-p38 in CL1-5 cells. Kind of series: Western blot active-p38, CL1-5. As to conditions: CL1-5, gefitinib 0-20 μM. The format is cell-based, human.
For series [19] the following is noted: SCID, mouse, in vivo, po, 3 weeks.

Turning to `Cc1ccc(-n2nc(C(C)(C)C)cc2NC(=O)Nc2ccc(OCCN3CCOCC3)c3ccccc23)cc1` [BIRB 796, reference compound], the “rescue from toxic effect of gefitinib (cell survival)” value in series [1] (IEC-18, curcumin 5 μM, BIRB 796 10 nM, gefitinib 30 and 40 μM) was “rescue the cells from this toxic effect of gefitinib”. Also, the “active-p38 expression on gefitinib-treated cells” value in series [2] (IEC-18, curcumin 5 μM, BIRB 796 10 nM) is given as “significantly decrease the active-p38 expression”.

For `CCOC(=O)CC/C(C(=O)/C=C/c1ccc(O)c(OC)c1)=C(O)\C=C\c1ccc(O)c(OC)c1` [JC-15], the “protection against gefitinib-induced intestinal cell death (FIG. 10)” value (from here on “protection”) in series [1] was “protective effect to reduce gefitinib-induced intestinal cell death”.

With `COc1cc(/C=C/C(=O)C(C(C)=O)C(O)/C=C/c2ccc(O)c(OC)c2)ccc1O` (centres unmarked) [LL68], the “protection” value in series [1] was “protective effect to reduce gefitinib-induced intestinal cell death”.

Regarding `COc1cc(/C=C/C(O)=C/C(=O)/C=C/c2ccc(O)cc2)ccc1O` [LL-18], in series [1], the “protection” value is recorded as “protective effect to reduce gefitinib-induced intestinal cell death”.

On to `COc1cc(/C=C/C(=O)/C=C(O)/C=C/c2ccc(O)c(OC)c2)ccc1O` [curcumin, diferuloylmethane], for which the “cell proliferation (FIG. 4A)” value in series [3], in series [4], in series [5], in [6] and in series [7] was “slight inhibition of cell proliferation” in each case. Further, the “proliferation (FIG. 1A right)” value in series [3] (A549, curcumin alone) is reported as “inhibited by curcumin in a concentration-dependent manner”; in series [4] (CL1-5, curcumin alone) it was “inhibited by curcumin in a concentration-dependent manner”; in series [5] (H1650, curcumin alone), “inhibited by curcumin in a concentration-dependent manner”; in [6] (H1975, curcumin alone), “inhibited by curcumin in a concentration-dependent manner”; in [7] (H1299, curcumin alone), “inhibited by curcumin in a concentration-dependent manner”. In series [1], the “rescue from toxic effect of gefitinib (cell survival)” value is “rescue the cells from this toxic effect of gefitinib”. Further, the “EGFR, pEGFR, AKT, and pAKT protein expression” value is “reduce EGFR, pEGFR, AKT, and pAKT protein expression” in series [8] (CL1-5, curcumin 1-20 μM, EGF 20 ng/ml); “reduce EGFR, pEGFR, AKT, and pAKT protein expression” in series [9] (A549, curcumin 1-20 μM, EGF 20 ng/ml). The “pEGFR and pAKT (FIG. 4B)” value in series [8] (CL1-5, gefitinib 1 μM alone, curcumin 10 and 15 μM alone, or gefitinib 1 μM + curcumin 15 μM) is “minimal suppressive effect”; in series [9] (A549, gefitinib 1 μM alone, curcumin 10 and 15 μM alone, or gefitinib 1 μM + curcumin 15 μM) it was “minimal suppressive effect”; in [11] it was “minimal suppressive effect”. Moreover, in series [10], the AKT phosphorylation result was “not altered”. In addition, the “level of cyclin D1” value in [10] is given as “significantly reduced”. In addition, the “EGFR mRNA expression” value in series [12] is listed as “reduce EGFR mRNA expression in a concentration-dependent manner”. Also, in series [13], the EGFR protein expression result is “inhibit the EGFR protein expression in a dose-dependent manner”. The “average tumor size at the end of the study” value in series [14] (curcumin 1 g/kg orally once daily) amounted to 354.91 mm^3. Moreover, in series [15], the cells in apoptosis result is “about 90%”. In [16] (Western blot of tumor tissue), the “levels of EGFR and AKT in the tumors” value is on record as “decreased”. Also, the “PCNA marker in tumor tissue” value in series [16] (immunohistochemical staining) is “decreased”. Also, the “cell apoptosis in tumor tissue (TUNEL)” value in series [16] (in situ cell death detection, vs control (and gefitinib only)) is reported as “induced cell apoptosis”. In addition, the “morphology / full length of the intestine” value in series [17] was “no obvious differences”.

For the molecule `COc1cc2ncnc(Nc3ccc(F)c(Cl)c3)c2cc1OCCCN1CCOCC1` [gefitinib, N-(3-Chloro-4-fluoro-phenyl)-7-methoxy-6-(3-morpholin-4-ylpropoxy)quinazolin-4-amine], the “cell proliferation (FIG. 4A)” value in [3] is “slight inhibition of cell proliferation”. In addition, the “IC25 for IEC-18 cell” value in series [1] (IEC-18) was 30 µM. Also, the IEC-18 cell survival entry in [1] (gefitinib 30 and 40 μM, 24 h) is recorded as “significantly reduce IEC-18 cell survival”. Moreover, in series [14] (gefitinib 120 mg/kg orally once daily), the “average tumor size at the end of the study” value was found to be 138.32 mm^3. Also, in series [2] (IEC-18, gefitinib 0-20 μM), the active-p38 result is recorded as “significant increased in a dose dependent manner”. The p38 activation result in series [18] is recorded as “did not elevate the p38 activation”. The molecule also came in with a survival rate in [19] of 33%. Further, in [17], the body weight entry is reported as “dramatic body weight lost”; the diarrhea result is on record as “obviously diarrhea side effect”; the “morphology / full length of the intestine” value was “shorter and thinner”.
